Measurements published in patent US8119633B2, “Substituted sulfonamide compounds” (Gruenenthal GmbH, priority 2007, dated 2012).

Legend:
[1] = biological target: T1, human bradykinin receptor 1 (B1R) (Homo sapiens, UniProt P46663); assay: Functional study on the bradykinin receptor 1 (B1R), human: FLIPR Ca2+ influx assay; assay type: cell-based; details: test substance 10 μM; CHO K1 cells transfected with human B1R; Lys-Des-Arg9-bradykinin at EC80; Ca2+ influx (Fluo-4, FLIPR); read-out: B1R antagonism, human [10 μM] % inhibition
T1 construct: expressed in transfected cells; host or cells: CHO K1 cells
T1 sequence (P46663 1-353): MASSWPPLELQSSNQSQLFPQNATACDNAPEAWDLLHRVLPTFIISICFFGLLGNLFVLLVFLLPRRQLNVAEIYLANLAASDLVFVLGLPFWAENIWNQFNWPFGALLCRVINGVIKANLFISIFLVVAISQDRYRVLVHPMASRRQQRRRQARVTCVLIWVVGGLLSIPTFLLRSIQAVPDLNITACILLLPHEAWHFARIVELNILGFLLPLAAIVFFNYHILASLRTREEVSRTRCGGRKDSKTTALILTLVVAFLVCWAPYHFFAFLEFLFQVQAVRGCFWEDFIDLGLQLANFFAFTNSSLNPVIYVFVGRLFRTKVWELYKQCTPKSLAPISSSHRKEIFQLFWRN
Outline: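 CHO K1 cells stably expressing human B1R were loaded with Fluo-4, and Ca2+ fluorescence was read on FLIPR (ex 488/em 540 nm). Compound was added first (10 μM for % activation against Lys-Des-Arg9-bradykinin ≥0.5 nM). After 10-20 min, Lys-Des-Arg9-bradykinin was added at EC80 for % inhibition; IC50 came from concentration series, n=2-3, N≥2.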

[2] = biological target: T2, bradykinin receptor 1 (B1R) of the rat (Rattus norvegicus, UniProt P97583); assay: Functional study on the bradykinin receptor 1 (B1R), rat: FLIPR Ca2+ influx assay; assay type: cell-based; details: test substance 10 μM; CHO K1 cells transfected with rat B1R; Des-Arg9-bradykinin at EC80; Ca2+ influx (Fluo-4, FLIPR); read-out: B1R antagonism, rat [10 μM] % inhibition
T2 construct: expressed in transfected cells; host or cells: CHO K1 cells
T2 sequence (P97583 1-337): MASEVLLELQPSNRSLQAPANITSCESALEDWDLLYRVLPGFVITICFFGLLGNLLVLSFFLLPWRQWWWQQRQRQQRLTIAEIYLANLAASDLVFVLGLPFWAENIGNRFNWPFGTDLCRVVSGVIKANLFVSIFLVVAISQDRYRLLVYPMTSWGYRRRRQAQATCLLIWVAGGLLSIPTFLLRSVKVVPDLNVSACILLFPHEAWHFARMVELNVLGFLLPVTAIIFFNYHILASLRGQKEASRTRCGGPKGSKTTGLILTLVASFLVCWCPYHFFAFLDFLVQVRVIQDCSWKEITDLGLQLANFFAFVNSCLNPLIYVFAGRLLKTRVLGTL
Outline: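 CHO K1 cells stably expressing rat B1R, Fluo-4-loaded, read on FLIPR (ex 488/em 540 nm, peak fluorescence). Test substances added first (agonism vs 10 μM Des-Arg9-bradykinin), then after 10-20 min Des-Arg9-bradykinin at EC80; % inhibition and IC50 from concentration series, n=2-3, N≥2.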

[3] = biological target: T3, human μ-opiate receptor (Homo sapiens, UniProt P35372); assay: Affinity for the human μ-opiate receptor ([3H]-naloxone displacement, SPA); details: test substance 1 μmol/l; inhibition of specific [3H]-naloxone binding; CHO-K1 receptor membrane preparation; read-out: μ-Opioid receptor [1 μM] % inhibition
T3 construct: purchased PerkinElmer Life Sciences, Zaventem, Belgium RB-HOM; host or cells: CHO-K1 cells (membrane preparation)
T3 sequence (P35372 whole entry): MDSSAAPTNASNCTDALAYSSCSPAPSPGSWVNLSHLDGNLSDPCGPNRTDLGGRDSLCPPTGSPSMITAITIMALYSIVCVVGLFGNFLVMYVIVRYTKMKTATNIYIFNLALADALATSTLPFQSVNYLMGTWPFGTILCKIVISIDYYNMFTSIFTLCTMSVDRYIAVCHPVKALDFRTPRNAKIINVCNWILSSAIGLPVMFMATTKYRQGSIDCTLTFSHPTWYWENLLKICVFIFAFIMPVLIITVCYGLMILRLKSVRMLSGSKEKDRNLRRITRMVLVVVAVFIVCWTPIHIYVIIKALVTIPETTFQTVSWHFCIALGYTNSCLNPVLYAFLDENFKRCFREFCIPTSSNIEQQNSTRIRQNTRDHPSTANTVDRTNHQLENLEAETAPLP
Experimental: Studies of the Effectiveness of the Compounds According to the Invention Method for determining the affinity for the human μ-opiate receptor
The receptor affinity for the human μ-opiate receptor is determined in a homogeneous batch on microtitre plates. To this end, serial dilutions of the substances to be tested are incubated for 90 minutes at room temperature with a receptor membrane preparation (15-40 μg of protein/250 μl of incubation batch) of CHO-K1 cells, which express the human μ-opiate receptor (RB-HOM receptor membrane preparation from PerkinElmer Life Sciences, Zaventem, Belgium), in the presence of 1 nmol/l of the radioactive ligand [^3H]-naloxone (NET719, PerkinElmer Life Sciences, Zaventem, Belgium) and 1 mg of WGA-SPA beads (wheatgerm agglutinin SPA beads from Amersham/Pharmacia, Freiburg, Germany) in a total volume of 250 μl. The incubation buffer used is 50 mmol/l of Tris-HCl supplemented with 0.06 wt. % bovine serum albumin. In order to determine non-specific binding, 100 μmol/l of naloxone is additionally added. When the ninety-minute incubation time has ended, the microtitre plates are centrifuged off for 20 minutes at 1000 g and the radioactivity is measured in a β-counter (Microbeta-Trilux, PerkinElmer Wallac, Freiburg, Germany). The percentage displacement of the radioactive ligand from its binding to the human μ-opiate receptor at a concentration of the test substances of 1 μmol/l is determined and stated as the percentage inhibition of specific binding. On the basis of the percentage displacement by different concentrations of the test substances, IC50 inhibitory concentrations, which effect 50% displacement of the radioactive ligand, are calculated. Ki values for the test substances are obtained by conversion by means of the Cheng-Prusoff equation.

Row | SMILES | inhibition at 10 µM [1] [%] | inhibition at 10 µM [2] [%] | inhibition at 1 µM [3] [%]
1 | O=C(CC1C(=O)Nc2ccccc2N1S(=O)(=O)c1ccc(Cl)c(Cl)c1)NCC1CCC(C(c2ccccc2)N2CCCC2)CC1 (stereo not drawn) [Example 67, 2-[1-(3,4-dichloro-benzenesulfonyl)-3-oxo-1,2,3,4-tetrahydro-quinoxalin-2-yl]-N-[4-(phenyl-pyrrolidin-1-yl-methyl)-cyclohexylmethyl]-acetamide] | 104 | 104 | 64
2 | O=C(CC1C(=O)Nc2ccccc2N1S(=O)(=O)c1ccc(Cl)c(Cl)c1)NC1CCC(C(CCc2ccccc2)N2CCCCC2)CC1 (stereo not drawn) [Example 68, 2-[1-(3,4-dichloro-benzenesulfonyl)-3-oxo-1,2,3,4-tetrahydro-quinoxalin-2-yl]-N-[4-(3-phenyl-1-piperidin-1-yl-propyl)-cyclohexyl]-acetamide] | 104 | 37 | 30
3 | O=C(CC1C(=O)Nc2ccccc2N1S(=O)(=O)c1ccc(Cl)c(Cl)c1)NC1CCC(C(CCc2ccccc2)N2CCOCC2)CC1 (stereo not drawn) [Example 69, 2-[1-(3,4-dichloro-benzenesulfonyl)-3-oxo-1,2,3,4-tetrahydro-quinoxalin-2-yl]-N-[4-(1-morpholin-4-yl-3-phenyl-propyl)-cyclohexyl]-acetamide] | 105 | 19 | 7
4 | CN1CCN(C(c2ccccc2)C2CCC(NC(=O)CC3C(=O)Nc4ccccc4N3S(=O)(=O)c3ccc(Cl)c(Cl)c3)CC2)CC1 (stereo not drawn) [Example 70, 2-[1-(3,4-dichloro-benzenesulfonyl)-3-oxo-1,2,3,4-tetrahydro-quinoxalin-2-yl]-N-{4-[(4-methyl-piperazin-1-yl)-phenyl-methyl]-cyclohexyl}-acetamide] | 104 | 98 | 11
5 | O=C1Nc2ccccc2N(S(=O)(=O)c2ccc(Cl)c(Cl)c2)C1CC(=O)N1CCC(C(c2ccccc2)N2CCOCC2)CC1 (stereo not drawn) [Example 71, 4-(3,4-dichloro-benzenesulfonyl)-3-{2-[4-(morpholin-4-yl-phenyl-methyl)piperidin-1-yl]-2-oxo-ethyl}-3,4-dihydro-1H-quinoxalin-2-one] | 104 | 32 | 12
6 | O=C1Nc2ccccc2N(S(=O)(=O)c2ccc(Cl)c(Cl)c2)C1CC(=O)N1CCC(C(Cc2ccccc2)N2CCOCC2)CC1 (stereo not drawn) [Example 72, 4-(3,4-dichlorophenylsulfonyl)-3-(2-(4-(1-morpholino-2-phenylethyl)piperidin-1-yl)-2-oxoethyl)-3,4-dihydroquinoxalin-2(1H)-one] | 102 | 30 | 26
7 | O=C(CC1CCCN1S(=O)(=O)c1ccc(Cl)c(Cl)c1)NCC1CCC(C(c2ccccc2)N2CCOCC2)CC1 (stereo not drawn) [Example 73, 2-[1-(3,4-dichloro-benzenesulfonyl)-pyrrolidin-2-yl]-N-[4-(morpholin-4-yl-phenyl-methyl)-cyclohexylmethyl]-acetamide] | 76.3 | 36 | 17
8 | O=C(CC1CCCN1S(=O)(=O)c1ccc(Cl)c(Cl)c1)NCC1CCC(C(CCc2ccccc2)N2CCOCC2)CC1 (stereo not drawn) [Example 74, 2-[1-(3,4-dichloro-benzenesulfonyl)-pyrrolidin-2-yl]-N-[4-(1-morpholin-4-yl-3-phenyl-propyl)-cyclohexylmethyl]-acetamide] | 54.7 | 19 | 7
9 | O=C(CC1CCCN1S(=O)(=O)c1ccc(Cl)c(Cl)c1)NCC1CCC(C(CCc2ccccc2)N2CCCC2)CC1 (stereo not drawn) [Example 75, 2-[1-(3,4-dichloro-benzenesulfonyl)-pyrrolidin-2-yl]-N-[4-(3-phenyl-1-pyrrolidin-1-yl-propyl)-cyclohexylmethyl]-acetamide] | 91.7 | 2 | 65
10 | O=C(CC1CCCN1S(=O)(=O)c1ccc(Cl)c(Cl)c1)NCC1CCC(C(c2ccccc2)N2CCCC2)CC1 (stereo not drawn) [Example 76, 2-[1-(3,4-dichloro-benzenesulfonyl)-pyrrolidin-2-yl]-N-[4-(phenyl-pyrrolidin-1-ylmethyl)-cyclohexylmethyl]-acetamide] | 80.4 | 9 | 84
11 | O=C(CC1CCCN1S(=O)(=O)c1ccc(Cl)c(Cl)c1)NC1CCC(C(CCc2ccccc2)N2CCCCC2)CC1 (stereo not drawn) [Example 77, 2-(1-(3,4-dichlorophenylsulfonyl)pyrrolidin-2-yl)-N-(4-(3-phenyl-1-(piperidin-1-yl)propyl)cyclohexyl)acetamide] | 102 | 1 | 35
12 | O=C(CC1CCCN1S(=O)(=O)c1ccc(Cl)c(Cl)c1)NC1CCC(C(CCc2ccccc2)N2CCOCC2)CC1 (stereo not drawn) [Example 78, 2-(1-(3,4-dichlorophenylsulfonyl)pyrrolidin-2-yl)-N-(4-(1-morpholino-3-phenylpropyl)cyclohexyl)acetamide] | 78.3 | 10 | 18
13 | CN1CCN(C(c2ccccc2)C2CCC(NC(=O)CC3CCCN3S(=O)(=O)c3ccc(Cl)c(Cl)c3)CC2)CC1 (stereo not drawn) [Example 79, 2-[1-(3,4-dichloro-benzenesulfonyl)-pyrrolidin-2-yl]-N-{4-[(4-methyl-piperazin-1-yl)-phenyl-methyl]-cyclohexyl}-acetamide] | 96.8 | 33 | 47
14 | O=C(CC1CCCN1S(=O)(=O)c1ccc(Cl)c(Cl)c1)N1CCC(C(c2ccccc2)N2CCOCC2)CC1 (stereo not drawn) [Example 80, 2-[1-(3,4-dichloro-benzenesulfonyl)-pyrrolidin-2-yl]-1-[4-(morpholin-4-yl-phenylmethyl)-piperidin-1-yl]-ethanone] | 16.7 | 15 | 7
15 | O=C(CC1CCCN1S(=O)(=O)c1ccc(Cl)c(Cl)c1)N1CCC(C(Cc2ccccc2)N2CCOCC2)CC1 (stereo not drawn) [Example 81, 2-(1-(3,4-dichlorophenylsulfonyl)pyrrolidin-2-yl)-1-(4-(1-morpholino-2-phenylethyl)piperidin-1-yl)ethanone] | 65.3 | 56 | 16
16 | O=C(CC1CCCCN1S(=O)(=O)c1ccc(Cl)c(Cl)c1)NCC1CCC(C(c2ccccc2)N2CCOCC2)CC1 (stereo not drawn) [Example 82, 2-[1-(3,4-dichloro-benzenesulfonyl)-piperidin-2-yl]-N-[4-(morpholin-4-yl-phenylmethyl)-cyclohexylmethyl]-acetamide] | 23.5 | 7 | 23
